#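 96-well plates; 48 h exposure; 5 concentrations. Endpoints by linear interpolation between flanking doses. Not reached: highest tested concentration assigned. Here, GI50 denotes the concentration required for 50% inhibition of growth.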 Active and inactive are the calls of the source. No stated cut-off is given here; in the data, active = GI50 up to about 1.1 µM and inactive = higher.
# Columns and labels:
# Test in all cases: DTP human tumour cell line panel, 48 h
# [1] = system: A498
# [2] = system: A549
# [3] = system: ACHN
# [4] = system: CAKI-1
# [5] = system: DLD-1
# [6] = system: DMS-114
# [7] = system: HCC 2998
# [8] = system: HCT-116
# [9] = system: HCT-15
# [10] = system: HL-60
# [11] = system: HOP-18
# [12] = system: HOP-62
# [13] = system: HOP-92
# [14] = system: HT-29
# [15] = system: KM-20L2
# [16] = system: KM12
# [17] = system: LOX IMVI
# [18] = system: LXFL 529
# [19] = system: M14
# [20] = system: MOLT-4
# [21] = system: Malme-3M
# [22] = system: NCI-H226
# [23] = system: NCI-H23
# [24] = system: NCI-H460
# [25] = system: NCI-H522
# [26] = system: OVCAR-4
# [27] = system: OVCAR-5
# [28] = system: RPMI-8226
# [29] = system: RXF 393
# [30] = system: RXF 631
# [31] = system: SF-268
# [32] = system: SF-295
# [33] = system: SK-MEL-28
# [34] = system: SK-MEL-2
# [35] = system: SK-MEL-5
# [36] = system: SK-OV-3
# [37] = system: SN12C
# [38] = system: SNB-19
# [39] = system: SNB-75
# [40] = system: SNB-78
# [41] = system: SR
# [42] = system: SW-620
# [43] = system: TK-10
# [44] = system: U-251
# [45] = system: UACC-257
# [46] = system: XF498
# [47] = system: 786-0
# [48] = system: COLO 205
# [49] = system: DMS-273
# [50] = system: EKVX
# [51] = system: IGROV-1
# [52] = system: M19-MEL
# [53] = system: OVCAR-3
# [54] = system: OVCAR-8
# [55] = system: SF-539
# [56] = system: UACC-62
# [57] = system: UO-31
smiles,measurement,setting,value
N#CC1=C(c2ccccc2)NNC(c2ccc(Cl)cc2)CC1=O (stereo not given),GI50,[1],68.7 µM (inactive)
same,GI50,[2],39.9 µM (inactive)
same,GI50,[3],49.2 µM (inactive)
same,GI50,[4],40.6 µM (inactive)
same,GI50,[5],32.4 µM (inactive)
same,GI50,[6],82.2 µM (inactive)
same,GI50,[7],56.6 µM (inactive)
same,GI50,[8],49.3 µM (inactive)
same,GI50,[9],26.2 µM
same,GI50,[10],17.6 µM (inactive)
same,GI50,[11],> 100 µM (inactive)
same,GI50,[12],23.3 µM (inactive)
same,GI50,[13],43.3 µM (inactive)
same,GI50,[14],30.8 µM (inactive)
same,GI50,[15],24 µM (inactive)
same,GI50,[16],38 µM (inactive)
same,GI50,[17],32.8 µM (inactive)
same,GI50,[18],28.7 µM (inactive)
same,GI50,[19],25.6 µM (inactive)
same,GI50,[20],58.7 µM (inactive)
same,GI50,[21],32.4 µM (inactive)
same,GI50,[22],0.165 µM (active)
same,GI50,[23],73.6 µM (inactive)
same,GI50,[24],36.1 µM (inactive)
same,GI50,[25],20.4 µM (inactive)
same,GI50,[26],42.9 µM (inactive)
same,GI50,[27],37.1 µM (inactive)
same,GI50,[28],29.9 µM (inactive)
same,GI50,[29],54.2 µM (inactive)
same,GI50,[30],> 10 µM (inactive)
same,GI50,[31],50.8 µM (inactive)
same,GI50,[32],24.6 µM (inactive)
same,GI50,[33],91.4 µM (inactive)
same,GI50,[34],29.4 µM (inactive)
same,GI50,[35],20.9 µM (inactive)
same,GI50,[36],44.4 µM (inactive)
same,GI50,[37],45.5 µM (inactive)
same,GI50,[38],53.2 µM (inactive)
same,GI50,[39],14.8 µM (inactive)
same,GI50,[40],> 100 µM (inactive)
same,GI50,[41],39.2 µM (inactive)
same,GI50,[42],33.5 µM (inactive)
same,GI50,[43],> 100 µM (inactive)
same,GI50,[44],57.8 µM (inactive)
same,GI50,[45],45 µM (inactive)
same,GI50,[46],26.2 µM (inactive)
Cc1ccc(S(=O)(=O)NC(C)C(=O)O)cc1 (stereo not given),GI50,[47],> 100 µM (inactive)
same,GI50,[1],> 100 µM (inactive)
same,GI50,[2],> 100 µM (inactive)
same,GI50,[3],> 100 µM (inactive)
same,GI50,[4],> 100 µM (inactive)
same,GI50,[48],> 100 µM (inactive)
same,GI50,[5],> 100 µM (inactive)
same,GI50,[49],> 100 µM (inactive)
same,GI50,[50],> 100 µM (inactive)
same,GI50,[7],> 100 µM (inactive)
same,GI50,[9],> 100 µM
same,GI50,[10],> 100 µM (inactive)
same,GI50,[11],> 100 µM (inactive)
same,GI50,[13],> 100 µM (inactive)
same,GI50,[14],> 100 µM (inactive)
same,GI50,[51],> 100 µM (inactive)
same,GI50,[15],> 100 µM (inactive)
same,GI50,[16],> 100 µM (inactive)
same,GI50,[17],> 100 µM (inactive)
same,GI50,[18],> 100 µM (inactive)
same,GI50,[19],> 100 µM (inactive)
same,GI50,[52],> 100 µM (inactive)
same,GI50,[20],> 100 µM (inactive)
same,GI50,[21],> 100 µM (inactive)
same,GI50,[22],> 100 µM (inactive)
same,GI50,[23],> 100 µM (inactive)
same,GI50,[24],> 100 µM (inactive)
same,GI50,[25],> 100 µM (inactive)
same,GI50,[53],> 100 µM (inactive)
same,GI50,[26],> 100 µM (inactive)
same,GI50,[27],> 100 µM (inactive)
same,GI50,[54],> 100 µM (inactive)
same,GI50,[28],> 100 µM (inactive)
same,GI50,[29],> 100 µM (inactive)
same,GI50,[30],> 100 µM (inactive)
same,GI50,[31],> 100 µM (inactive)
same,GI50,[32],> 100 µM (inactive)
same,GI50,[55],> 100 µM (inactive)
same,GI50,[33],> 100 µM (inactive)
same,GI50,[34],> 100 µM (inactive)
same,GI50,[35],> 100 µM (inactive)
same,GI50,[36],> 100 µM (inactive)
same,GI50,[37],> 100 µM (inactive)
same,GI50,[38],> 100 µM (inactive)
same,GI50,[39],> 100 µM (inactive)
same,GI50,[42],> 100 µM (inactive)
same,GI50,[43],> 100 µM (inactive)
same,GI50,[44],> 100 µM (inactive)
same,GI50,[45],> 100 µM (inactive)
same,GI50,[56],> 100 µM (inactive)
same,GI50,[57],> 100 µM (inactive)
same,GI50,[46],> 100 µM (inactive)
C/C(=N/Nc1ccc([N+](=O)[O-])cc1[N+](=O)[O-])C(CC(C(=O)NCc1ccccc1)/C(C)=N\Nc1ccc([N+](=O)[O-])cc1[N+](=O)[O-])C(=O)NCc1ccccc1 (stereo not given),GI50,[47],3.24 µM (inactive)
same,GI50,[1],14.8 µM (inactive)
same,GI50,[2],4.4 µM (inactive)
same,GI50,[3],5.46 µM (inactive)
same,GI50,[4],7.03 µM (inactive)
same,GI50,[48],13.5 µM (inactive)
same,GI50,[5],12.1 µM (inactive)
same,GI50,[6],9.91 µM (inactive)
same,GI50,[49],8.02 µM (inactive)
same,GI50,[50],12.7 µM (inactive)
same,GI50,[7],13.2 µM (inactive)
same,GI50,[8],4.88 µM (inactive)
same,GI50,[9],10.3 µM
same,GI50,[10],< 0.01 µM (active)
same,GI50,[11],2.69 µM (inactive)
same,GI50,[12],3.88 µM (inactive)
same,GI50,[13],2.88 µM (inactive)
same,GI50,[14],6.14 µM (inactive)
same,GI50,[51],13.7 µM (inactive)
same,GI50,[15],14.2 µM (inactive)
same,GI50,[16],4.86 µM (inactive)
same,GI50,[18],10.9 µM (inactive)
same,GI50,[19],8.04 µM (inactive)
same,GI50,[52],11.5 µM (inactive)
same,GI50,[21],12.2 µM (inactive)
same,GI50,[22],11.2 µM (inactive)
same,GI50,[23],13.3 µM (inactive)
same,GI50,[24],5.51 µM (inactive)
same,GI50,[25],< 0.01 µM (active)
same,GI50,[53],11.3 µM (inactive)
same,GI50,[26],2.4 µM (inactive)
same,GI50,[27],19.4 µM (inactive)
same,GI50,[54],2.14 µM (inactive)
same,GI50,[28],14.7 µM (inactive)
same,GI50,[29],4.24 µM (inactive)
same,GI50,[30],4.29 µM (inactive)
same,GI50,[31],4.42 µM (inactive)
same,GI50,[32],5.89 µM (inactive)
same,GI50,[55],4.06 µM (inactive)
same,GI50,[33],7.8 µM (inactive)
same,GI50,[34],10.1 µM (inactive)
same,GI50,[36],15.6 µM (inactive)
same,GI50,[37],4.05 µM (inactive)
same,GI50,[38],15.2 µM (inactive)
same,GI50,[39],2.96 µM (inactive)
same,GI50,[40],9.16 µM (inactive)
same,GI50,[41],9.1 µM (inactive)
same,GI50,[42],10.8 µM (inactive)
same,GI50,[44],3.25 µM (inactive)
same,GI50,[45],5.21 µM (inactive)
same,GI50,[56],11.7 µM (inactive)
same,GI50,[57],2.39 µM (inactive)
